Assays:
[1] = tested on: Human mammary epithelial cells (hMEC); experiment: LDH release cytotoxicity assay in 2D, 3D static and 3D perfusion culture; assay type: cell-based; conditions: 2% triton 2 hours prior to analysis, positive control
Procedure: (§1) The experiment was performed in a single chamber culture system (one chamber of a 3DKUBE in an “independent chamber” configuration) or using wells in a 12-well plate. […] The inlet port was connected to an opening in a first side of the 3DKUBE cell module and the outlet port connected to an opening in a second side of the cell module. The chamber featured an imaging widow enabling non-lytic analysis inside the chamber through various spectrophotometric and other techniques.
(§2) Human mammary epithelial cells (hMEC) were utilized. For 2D experiments hMEC were cultured on the bottom of 12-well plates as per typical cell culture practices (referred to as “2D” experiments). For 3D static and perfusion experiments hMEC were suspended in a Matrigel™:Collagen (rat tail collagen Type I) mixture which was added to silk fibroin scaffolds (H 2.5 mm×W 5 mm) contained in 12-well plates (referred to as “3D static”) or 3DKUBEs (referred to as “3D perfusion”). […]
(§3) The secretion of lactate dehydrogenase (LDH) is a non-lytic assay of cytotoxicity. […] The cells were cultured in these 2D, 3D static, or 3D perfusion configurations over 7 days in media alone or in media with increasing concentrations of cisplatin (a DNA alkylating agent used in chemotherapy) and analyzed via PrestoBlue or LDH release (examples of non-lytic means of assessing cell viability or cytotoxicity). […]

[2] = tested on: Human mammary epithelial cells (hMEC); experiment: PrestoBlue cell viability analysis in 2D, 3D static and 3D perfusion culture; assay type: cell-based; conditions: hMEC cultured over 7 days with increasing concentrations of cisplatin, 3D static, 3D perfusion (FIG. 16)
Procedure: as §1, §2, §3

| Compound | maximal cell lysis (LDH release) ([1]; 2D and 3D static (12-well plates)) | increase of LDH release ([1]; 3D perfusion (3DKUBE)) | cell viability (PrestoBlue analysis) [2] |
| --- | --- | --- | --- |
| triton | reduced maximal cell lysis | approximately 2.5 fold |  |
| N.N.[Cl][Pt][Cl] [cisplatin] |  |  | decrease in cell viability that is only statistically significant in 3D static and 3D perfusion |

Reference: patent US11149248B2, “Bioreactor system” (KIYATEC INC., priority 2013, dated 2021)
